According to patent US11613750B2, “Methods of reducing virus molecule levels” (priority 2019, dated 2023):

Legend:
HBsAg = settings: HepG2.2.15 cells; for EC50: read-out: EC50, Extracell. HBsAg reduction
Method: (§1) Cell viability was assessed by ATP levels determined using the CellTiter-Glo reagent and the results normalized to the level in mock-treated cells. HBsAg levels were quantified using ELISA and the data normalized to the level in the mock-treated cells.
The cellular proteins GRP78/BIP, SRSF1, HNRNPA2B1, RPLP1, and RPLP2 were identified as having roles in HBV replication and infection. Various siRNAs and combinations thereof targeting the RNAs encoding these proteins were contacted with HepG2.2.15 cells at a final concentration of 7.5 nM.
The EC50 values of several siRNAs and combinations of siRNAs targeting HNRNPA2B1, GRP78, RPLP1, RPLP2, and/or SRSF1 were determined with respect to the ability to reduce HBsAg levels in HepG2.2.15 cells.
(§2) The ability of siRNAs targeting host factors that then results in the reduced production of multiple HBV molecules was evaluated by quantifying the amount of HBsAg, HBeAg, and Core protein produced by HepG2.2.15 cells after contacting with 10 nM of siRNAs that target HNRNPA2B1, GRP78, RPLP1, RPLP2, and SRSF1. We also contacted the cells with 5 nM of each set of siRNAs that targets both RPLP1 and RPLP2. The level of HBsAg, HBeAg, and Core were all determined using ELISAs.
(§3) The library of siRNAs of Example A5 were tested for the reduction of HBsAg secreted by HepG2.2.15 cells and in HBV virions.

HepG2.2.15 cells = assay: HepG2.2.15 cell viability, CellTiter-Glo; settings: for CC50: read-out: CC50, HepG2.2.15 cell viability, highest concentration tested 80 nM
Method: as §1
The effects on cell viability were quantified using the CellTiter-Glo reagent. All data were normalized to the amount of protein produced by mock-treated cells.
as §3

HBeAg = settings: for HBeAg reduction HepG2.2.15 cells: 10 nM siRNA transfected into cells
Method: HBeAg in the cell culture media was assessed using ELISAs.
as §2, §3

SRSF1 protein = assay: Target protein reduction by Western blot in HepG2.2.15 cells; format: cell-based, human; settings: 10 nM siRNA, 72 h
Method: (§4) The host factors likely function in viral infection as proteins. Therefore, we determined whether the siRNAs could decrease the amounts of the target protein. Cell transfected with 10 nM of each siRNA for 72 h were lysed and the target proteins identified using Western blots probed with target-specific antibodies. The effective siRNAs described in Table 3 reduced the levels of the proteins by between 28 and 92% of the mock-treated samples. The reduction in the proteins is less than the reduction of the target mRNA, likely due to the proteins have prolonged half-life and that more time is needed for their degradation. […] We reason that this is due to RPLP1 and RPLP2 functioning as heterodimers such that a decrease of one protein increases the vulnerability of the other protein to degradation. Similar concomitant decrease of the proteins was reported by Campos et al. (17). Finally, the levels of two cellular proteins that are not targeted by the siRNAs, P54nrb and GAPDH, were unaffected.

RPLP1 mRNA = assay: Target mRNA reduction by RT-qPCR in HepG2.2.15 cells; format: cell-based, human; settings: 10 nM siRNA
Source text: The siRNAs identified as described in Example A6 should function by a mechanism that includes being loaded in the RISC complex to cleave the cognate mRNA, leading to the degradation of the mRNA. To examine whether the siRNAs are effective in reducing the target mRNA, we used reverse transcription coupled with quantitative polymerase chain reaction (RT-qPCR) to assess the level of the target mRNA in HepG2.2.15 cells. All 32 siRNAs described in Table 2 reduced the mRNA by more than 75% (Table 3).

RPLP1 protein = assay: Target protein reduction by Western blot in HepG2.2.15 cells; format: cell-based, human; settings: 10 nM siRNA, 72 h
Method: as §4

HCoV-OC43 = assay: OC43 virion RNA, Branched DNA assay, infected HCT8 cells; format: cell-based, human coronavirus OC43; settings: for OC43 vRNA reduction siRNA and siGRP78: 10 nM siRNA along with 10 nM of siRNA targeting GRP78, HCT8 cells; for OC43 vRNA reduction: 10 nM siRNA, HCT8 cells
Method: The siRNAs were transfected in the HCT8 cells at a final concentration of 10 nM. A positive control for the inhibition of Coronavirus infection, Remdesivir (Rem), was used at 0.9 μM. The virion RNAs (vRNAs) were quantified using a Branched DNA assay specific for OC43 RNA.
The two siRNAs are those referred to by compound number (see Table 2) in the horizontal bar, along with siRNA targeting GRP78, siGRP78. A positive control for the inhibition of Coronavirus infection, Remdesivir (Rem), was used at 0.9 μM. The vRNAs were quantified using a Branched DNA assay specific for OC43 RNA.
The siRNAs listed in Table 2 were transfected into human colon epithelial HCT8 cells and the amount of OC43 virion produced was quantified. In these assays, the OC43 vRNA was quantified using a Branched DNA assay (QuantiGene gene expression assay: ThermoFisher). As a positive inhibitory control, the infected cells were treated with Remdesivir. […] Examples of the inhibition of OC43 vRNA are illustrated in FIG. 5A.
A combination of siRNAs targeting the host factor should more robustly reduce OC43 virion production. To illustrate this, HCT8 cells were transfected with 10 nM of siRNAs from Table 2 along with 10 nM of siRNA targeting GRP78. The virion RNAs produced were quantified using the Branched DNA assay. […] A combination of siRNAs targeting host factors GRP78, SRSF1, RPLP1 and RPLP2 can lead to significant reduction in the production of human Coronavirus virion RNA from infected cells.

Substance	EC50 (HBsAg)	CC50 (HepG2.2.15 cells)	HBeAg reduction HepG2.2.15 cells (HBeAg)	Target protein reduction in HepG2.2.15 cells (SRSF1 protein)	HBsAg level, dose response (HBsAg; FIG. 5A)	cytotoxicity / cell viability, siRNA library (HepG2.2.15 cells; up to the highest concentration tested, 80 nM)	HBeAg level, siRNA library (HBeAg; HepG2.2.15 cells, Example A6, FIG. 5A)	Target RNA reduction in HepG2.2.15 cells (RPLP1 mRNA)	Target protein reduction in HepG2.2.15 cells (RPLP1 protein)	OC43 vRNA reduction siRNA and siGRP78 (HCoV-OC43)	OC43 vRNA reduction (HCoV-OC43)
23 (CUGGAUAACACUAAGUUUAUUUAAACUUAGUGUUAUCCAGUU; siRNA; Self-complementary hairpin strand, chemistry not given here, further chemistry not given here; listed as Homo sapiens) [compound 23]	3.9 nM	> 80 nM	29.8 ± 3%	81 ± 11%	–	–	–	–	–	–	–
24 (GCAAAGAAAGAAGAAUCCGTTCGGAUUCUUCUUUCUUUGCTT; siRNA; Self-complementary hairpin strand, chemistry not given here, further chemistry not given here; listed as Homo sapiens) [compound 24]	0.359 nM	> 80 nM	66 ± 2%	–	dose-dependent reduction of HBV S-antigen (HBsAg)	without affecting cell viability	inhibited the levels of HBsAg and HBeAg	80 ± 1%	48 ± 3%	94 ± 4%	89 ± 8%
25 (GAUCAAUGCCCUCAUUAAAGCTTUUUAAUGAGGGCAUUGAUCUUTT; siRNA; Self-complementary hairpin strand, chemistry not given here, further chemistry not given here; listed as Homo sapiens) [compound 25]	1.83 nM	> 80 nM	60 ± 3%	–	–	–	–	74 ± 6%	53 ± 12%	88 ± 3%	80 ± 7%
26 (GAAGCAAAGAAAGAAGAAUCCTTAUUCUUCUUUCUUUGCUUCCATT; siRNA; Self-complementary hairpin strand, chemistry not given here, further chemistry not given here; listed as Homo sapiens) [compound 26]	0.376 nM	> 80 nM	64 ± 3%	–	–	–	–	86 ± 1%	72 ± 17%	95 ± 1%	91 ± 3%
27 (GGUCUUUUUGACUAAACCUCUTTAGGUUUAGUCAAAAAGACCAATT; siRNA; Self-complementary hairpin strand, chemistry not given here, further chemistry not given here; listed as Homo sapiens) [compound 27]	0.11 nM	> 80 nM	55 ± 5%	–	–	–	–	72 ± 7%	51 ± 9%	95 ± 2%	94 ± 4%
28 (UAUGGCCUCUGUCUCCGAGCUUUAGCUCGGAGACAGAGGCCAUAUU; siRNA; Self-complementary hairpin strand, chemistry not given here, further chemistry not given here; listed as Homo sapiens) [compound 28]	0.19 nM	> 80 nM	30 ± 4%	–	–	–	–	80 ± 2%	58 ± 7%	71 ± 6%	48 ± 12%
29 (UGUCUCCGAGCUCGCCUGCAUUUAUGCAGGCGAGCUCGGAGACAUU; siRNA; Self-complementary hairpin strand, chemistry not given here, further chemistry not given here; listed as Homo sapiens) [compound 29]	0.386 nM	> 80 nM	58 ± 3%	–	–	–	–	75 ± 1%	52 ± 4%	92 ± 3%	87 ± 10%
30 (AGGAUAAGAUCAAUGCCCUUCUUGAAGGGCAUUGAUCUUAUCCUUU; siRNA; Self-complementary hairpin strand, chemistry not given here, further chemistry not given here; listed as Homo sapiens) [compound 30]	0.69 nM	> 80 nM	58 ± 4%	–	–	–	–	78 ± 3%	45 ± 8%	84 ± 6%	90 ± 6%
31 (UUUGGCCUGGCUUGUUUGCAAUUUUGCAAACAAGCCAGGCCAAAUU; siRNA; Self-complementary hairpin strand, chemistry not given here, further chemistry not given here; listed as Homo sapiens) [compound 31]	0.012 nM	> 80 nM	–	–	–	–	–	84 ± 4%	37 ± 7%	82 ± 6%	82 ± 4%
32 (AGAAGAAAGUGGAAGCAAAGAUUUCUUUGCUUCCACUUUCUUCUUU; siRNA; Self-complementary hairpin strand, chemistry not given here, further chemistry not given here; listed as Homo sapiens) [compound 32]	0.525 nM	> 80 nM	32 ± 6%	–	–	–	–	80 ± 7%	71 ± 8%	86 ± 4%	87 ± 4%
33 (UUGGUCUUUUUGACUAAACCUUUAGGUUUAGUCAAAAAGACCAAUU; siRNA; Self-complementary hairpin strand, chemistry not given here, further chemistry not given here; listed as Homo sapiens) [compound 33]	1.54 nM	> 80 nM	–	–	–	–	–	83 ± 6%	28 ± 4%	–	–
